# From US20050239656A1, “Pyridine compounds or salts thereof and herbicides containing the same” (priority 2002, published 2005)
# System: corn
# Experiment: Test Example 1: foliage treatment, upland pot test
# Type: in vivo, Zea mays L.
# Conditions: crop, active ingredient 1000 g/ha, observed 18th to 23rd day, 0 = non-treated, 100 = complete kill
# Method in brief: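 In this upland pot foliage test, corn plants at 2.1 to 3.2 leaf stages were sprayed by a small size sprayer. The spray was a conventionally formulated wettable powder or emulsifiable concentrate weighed to a set active ingredient amount, diluted in water at 500 L/ha, plus 0.1% (v/v) agricultural spreader. Visual assessment on days 18 to 23 gave growth controlling degree (%), where 0 equals untreated and 100 means complete kill.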
row,Structure (SMILES),Growth controlling degree (%) Corn
1,"CC(C)C(c1cnccc1C(F)(F)F)N(C)C(=O)Cc1ccccc1 (stereo not drawn) [I-1, N-methyl-N-[2-methyl-1-(4-trifluoromethylpyridin-3-yl)propyl]phenylacetamide]",70%

# System: wheat
# Experiment: Test Example 2: soil surface treatment, upland pot test
# Type: in vivo, Triticum spp.
# Conditions: active ingredient 1000 g/ha, observed 20th to 28th day
# Method in brief: (§1)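 Upland soil in pots of 1/170,000 ha is sown; on day 1 after sowing the formulated compound (wettable powder or emulsifiable concentrate, predetermined a.i. amount, water volume 1,500 L/ha) is applied to the soil surface with a small sprayer. Percent control is judged by eye 20–28 days later.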
row,Structure (SMILES),Growth controlling degree (%) wheat
1,"CC(C)C(c1cnccc1C(F)(F)F)N(C)C(=O)Cc1ccccc1 (stereo not drawn) [I-1, N-methyl-N-[2-methyl-1-(4-trifluoromethylpyridin-3-yl)propyl]phenylacetamide]",50%

# System: velvetleaf
# Experiment: Test Example 1: foliage treatment, upland pot test
# Type: in vivo, Abutilon theophrasti MEDIC.
# Conditions: active ingredient 1000 g/ha, observed 18th to 23rd day, 0 = non-treated, 100 = complete kill
row,Structure (SMILES),Growth controlling degree (%) Velvetleaf
1,"CC(C)C(c1cnccc1C(F)(F)F)N(C)C(=O)Cc1ccccc1 (stereo not drawn) [I-1, N-methyl-N-[2-methyl-1-(4-trifluoromethylpyridin-3-yl)propyl]phenylacetamide]",90%

# System: rice (var. Nihonbare)
# Experiment: Test Example 3: paddy pot test, transplanted rice
# Type: in vivo, Oryza sativa L.
# Conditions: active ingredient 500 g/ha, applied 4th day after transplantation, visually observed 21st day after application, 0 = non-treated, 100 = complete kill
# Method in brief: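 Rice (2-leaf stage) was transplanted 3 cm deep into puddled, leveled paddy soil under 3–4 cm flooding. On day 4 after transplanting, diluted wettable powder or emulsifiable concentrate was pipetted onto the water at a predetermined active-ingredient dose. Growth control (0 = untreated, 100 = complete kill) was scored visually 21 days later.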
row,Structure (SMILES),Growth controlling degree (%) Rice
1,"CC(C)C(c1cnccc1C(F)(F)F)N(C)C(=O)Cc1ccccc1 (stereo not drawn) [I-1, N-methyl-N-[2-methyl-1-(4-trifluoromethylpyridin-3-yl)propyl]phenylacetamide]",60%

# System: crabgrass
# Experiment: Test Example 1: foliage treatment, upland pot test
# Type: in vivo, Digitaria sanguinalis L.
# Conditions: active ingredient 1000 g/ha, observed 18th to 23rd day, 0 = non-treated, 100 = complete kill
row,Structure (SMILES),Growth controlling degree (%) Crabgrass
1,"CC(C)C(c1cnccc1C(F)(F)F)N(C)C(=O)Cc1ccccc1 (stereo not drawn) [I-1, N-methyl-N-[2-methyl-1-(4-trifluoromethylpyridin-3-yl)propyl]phenylacetamide]",80%

# System: corn
# Experiment: Test Example 2: soil surface treatment, upland pot test
# Type: in vivo, Zea mays L.
# Conditions: active ingredient 1000 g/ha, observed 20th to 28th day
# Method in brief: as §1
row,Structure (SMILES),Growth controlling degree (%) Corn
1,"CC(C)C(c1cnccc1C(F)(F)F)N(C)C(=O)Cc1ccccc1 (stereo not drawn) [I-1, N-methyl-N-[2-methyl-1-(4-trifluoromethylpyridin-3-yl)propyl]phenylacetamide]",70%

# System: redroot pigweed
# Experiment: as above
# Type: in vivo, Amaranthus retroflexus L.
# Conditions: active ingredient 1000 g/ha, observed 20th to 28th day
# Method in brief: as §1
row,Structure (SMILES),Growth controlling degree (%) Redroot pigweed
1,"CC(C)C(c1cnccc1C(F)(F)F)N(C)C(=O)Cc1ccccc1 (stereo not drawn) [I-1, N-methyl-N-[2-methyl-1-(4-trifluoromethylpyridin-3-yl)propyl]phenylacetamide]",80%

# System: soybean
# Experiment: Test Example 1: foliage treatment, upland pot test
# Type: in vivo, Glycine max Merr.
# Conditions: crop, active ingredient 1000 g/ha, observed 18th to 23rd day, 0 = non-treated, 100 = complete kill
# Method in brief: (§2)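 Each plant species was sprayed once on its foliage, with wheat at 1.3–2.4, soybean at 0.1–0.4, barnyardgrass at 1.3–2.8 and rice at 1.2–2.6 leaves. Visual ratings of growth inhibition, 0 to 100%, followed 18–23 days later.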
row,Structure (SMILES),Growth controlling degree (%) Soybean
1,"CC(C)C(c1cnccc1C(F)(F)F)N(C)C(=O)Cc1ccccc1 (stereo not drawn) [I-1, N-methyl-N-[2-methyl-1-(4-trifluoromethylpyridin-3-yl)propyl]phenylacetamide]",80%

# System: green foxtail
# Experiment: Test Example 2: soil surface treatment, upland pot test
# Type: in vivo, Setaria viridis L.
# Conditions: active ingredient 1000 g/ha, observed 20th to 28th day
# Method in brief: as §1
row,Structure (SMILES),Growth controlling degree (%) Green foxtail
1,"CC(C)C(c1cnccc1C(F)(F)F)N(C)C(=O)Cc1ccccc1 (stereo not drawn) [I-1, N-methyl-N-[2-methyl-1-(4-trifluoromethylpyridin-3-yl)propyl]phenylacetamide]",100%

# System: japanese ribbon wapato
# Experiment: Test Example 3: paddy pot test, application under submerged conditions
# Type: in vivo, Sagittaria pygniaea
# Conditions: active ingredient 500 g/ha; submerged application at primary leaf stage; visually observed 14 days after application; 0 = non-treated, 100 = complete kill
# Method in brief: (§3)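 After sowing seeds and planting wapato tubers in flooded paddy soil, an aqueous dilution of the formulated compound was added to the 3–4 cm flood water at early leaf stage. Percent growth control relative to the untreated plot was assessed visually on day 14.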
row,Structure (SMILES),Growth controlling degree (%) Japanese ribbon wapato
1,"CC(C)C(c1cnccc1C(F)(F)F)N(C)C(=O)Cc1ccccc1 (stereo not drawn) [I-1, N-methyl-N-[2-methyl-1-(4-trifluoromethylpyridin-3-yl)propyl]phenylacetamide]",95%

# System: wheat
# Experiment: Test Example 1: foliage treatment, upland pot test
# Type: in vivo, Triticum spp.
# Conditions: crop, active ingredient 1000 g/ha, observed 18th to 23rd day, 0 = non-treated, 100 = complete kill
# Method in brief: as §2
row,Structure (SMILES),Growth controlling degree (%) wheat
1,"CC(C)C(c1cnccc1C(F)(F)F)N(C)C(=O)Cc1ccccc1 (stereo not drawn) [I-1, N-methyl-N-[2-methyl-1-(4-trifluoromethylpyridin-3-yl)propyl]phenylacetamide]",60%

# System: prickly sida
# Experiment: Test Example 2: soil surface treatment, upland pot test
# Type: in vivo, Sida spinosa L.
# Conditions: active ingredient 1000 g/ha, observed 20th to 28th day
# Method in brief: as §1
row,Structure (SMILES),Growth controlling degree (%) Prickly sida
1,"CC(C)C(c1cnccc1C(F)(F)F)N(C)C(=O)Cc1ccccc1 (stereo not drawn) [I-1, N-methyl-N-[2-methyl-1-(4-trifluoromethylpyridin-3-yl)propyl]phenylacetamide]",70%

# System: japanese bulrush
# Experiment: Test Example 3: paddy pot test, application under submerged conditions
# Type: in vivo, Scirpus juncoides
# Conditions: active ingredient 500 g/ha; submerged application at 0.5 leaf stage; visually observed 14 days after application; 0 = non-treated, 100 = complete kill
# Method in brief: as §3
row,Structure (SMILES),Growth controlling degree (%) Japanese bulrush
1,"CC(C)C(c1cnccc1C(F)(F)F)N(C)C(=O)Cc1ccccc1 (stereo not drawn) [I-1, N-methyl-N-[2-methyl-1-(4-trifluoromethylpyridin-3-yl)propyl]phenylacetamide]",98%

# System: barnyardgrass
# Experiment: Test Example 1: foliage treatment, upland pot test
# Type: in vivo, Echinochloa crus-galli L.
# Conditions: active ingredient 1000 g/ha, observed 18th to 23rd day, 0 = non-treated, 100 = complete kill
# Method in brief: as §2
row,Structure (SMILES),Growth controlling degree (%) Barnyardgrass
1,"CC(C)C(c1cnccc1C(F)(F)F)N(C)C(=O)Cc1ccccc1 (stereo not drawn) [I-1, N-methyl-N-[2-methyl-1-(4-trifluoromethylpyridin-3-yl)propyl]phenylacetamide]",80%

# System: velvetleaf
# Experiment: Test Example 2: soil surface treatment, upland pot test
# Type: in vivo, Abutilon theophrasti MEDIC.
# Conditions: active ingredient 1000 g/ha, observed 20th to 28th day
# Method in brief: as §1
row,Structure (SMILES),Growth controlling degree (%) Velvetleaf
1,"CC(C)C(c1cnccc1C(F)(F)F)N(C)C(=O)Cc1ccccc1 (stereo not drawn) [I-1, N-methyl-N-[2-methyl-1-(4-trifluoromethylpyridin-3-yl)propyl]phenylacetamide]",80%

# System: rice
# Experiment: as above
# Type: in vivo, Oryza sativa L.
# Conditions: active ingredient 1000 g/ha, observed 20th to 28th day
# Method in brief: as §1
row,Structure (SMILES),Growth controlling degree (%) Rice
1,"CC(C)C(c1cnccc1C(F)(F)F)N(C)C(=O)Cc1ccccc1 (stereo not drawn) [I-1, N-methyl-N-[2-methyl-1-(4-trifluoromethylpyridin-3-yl)propyl]phenylacetamide]",80%

# System: barnyardgrass
# Experiment: as above
# Type: in vivo, Echinochloa crus-galli L.
# Conditions: active ingredient 1000 g/ha, observed 20th to 28th day, 0 = non-treated, 100 = complete kill
# Method in brief: as §1
row,Structure (SMILES),Growth controlling degree (%) Barnyardgrass
1,"CC(C)C(c1cnccc1C(F)(F)F)N(C)C(=O)Cc1ccccc1 (stereo not drawn) [I-1, N-methyl-N-[2-methyl-1-(4-trifluoromethylpyridin-3-yl)propyl]phenylacetamide]",90%

# System: not given
# Experiment: not given
# Conditions: not given
row,Structure (SMILES),melting point
1,"CC(C)C(c1cnccc1C(F)(F)F)N(C)C(=O)Cc1ccccc1 (stereo not drawn) [I-1, N-methyl-N-[2-methyl-1-(4-trifluoromethylpyridin-3-yl)propyl]phenylacetamide]",71.2 °C

# System: rice
# Experiment: Test Example 1: foliage treatment, upland pot test
# Type: in vivo, Oryza sativa L.
# Conditions: crop, active ingredient 1000 g/ha, observed 18th to 23rd day, 0 = non-treated, 100 = complete kill
# Method in brief: as §2
row,Structure (SMILES),Growth controlling degree (%) Rice
1,"CC(C)C(c1cnccc1C(F)(F)F)N(C)C(=O)Cc1ccccc1 (stereo not drawn) [I-1, N-methyl-N-[2-methyl-1-(4-trifluoromethylpyridin-3-yl)propyl]phenylacetamide]",60%

# System: green foxtail
# Experiment: Test Example 1: foliage treatment, upland pot test
# Type: in vivo, Setaria viridis L.
# Conditions: active ingredient 1000 g/ha, observed 18th to 23rd day, 0 = non-treated, 100 = complete kill
row,Structure (SMILES),Growth controlling degree (%) Green foxtail
1,"CC(C)C(c1cnccc1C(F)(F)F)N(C)C(=O)Cc1ccccc1 (stereo not drawn) [I-1, N-methyl-N-[2-methyl-1-(4-trifluoromethylpyridin-3-yl)propyl]phenylacetamide]",70%

# System: redroot pigweed
# Experiment: Test Example 1: foliage treatment, upland pot test
# Type: in vivo, Amaranthus retroflexus L.
# Conditions: active ingredient 1000 g/ha, observed 18th to 23rd day, 0 = non-treated, 100 = complete kill
row,Structure (SMILES),Growth controlling degree (%) Redroot pigweed
1,"CC(C)C(c1cnccc1C(F)(F)F)N(C)C(=O)Cc1ccccc1 (stereo not drawn) [I-1, N-methyl-N-[2-methyl-1-(4-trifluoromethylpyridin-3-yl)propyl]phenylacetamide]",70%

# System: prickly sida
# Experiment: Test Example 1: foliage treatment, upland pot test
# Type: in vivo, Sida spinosa L.
# Conditions: active ingredient 1000 g/ha, observed 18th to 23rd day, 0 = non-treated, 100 = complete kill
row,Structure (SMILES),Growth controlling degree (%) Prickly sida
1,"CC(C)C(c1cnccc1C(F)(F)F)N(C)C(=O)Cc1ccccc1 (stereo not drawn) [I-1, N-methyl-N-[2-methyl-1-(4-trifluoromethylpyridin-3-yl)propyl]phenylacetamide]",80%

# System: crabgrass
# Experiment: Test Example 2: soil surface treatment, upland pot test
# Type: in vivo, Digitaria sanguinalis L.
# Conditions: active ingredient 1000 g/ha, observed 20th to 28th day
# Method in brief: as §1
row,Structure (SMILES),Growth controlling degree (%) Crabgrass
1,"CC(C)C(c1cnccc1C(F)(F)F)N(C)C(=O)Cc1ccccc1 (stereo not drawn) [I-1, N-methyl-N-[2-methyl-1-(4-trifluoromethylpyridin-3-yl)propyl]phenylacetamide]",100%

# System: soybean
# Experiment: as above
# Type: in vivo, Glycine max Merr.
# Conditions: active ingredient 1000 g/ha, observed 20th to 28th day
# Method in brief: as §1
row,Structure (SMILES),Growth controlling degree (%) Soyabean
1,"CC(C)C(c1cnccc1C(F)(F)F)N(C)C(=O)Cc1ccccc1 (stereo not drawn) [I-1, N-methyl-N-[2-methyl-1-(4-trifluoromethylpyridin-3-yl)propyl]phenylacetamide]",50%
